Measured values: PMC9719519, “Non-classical ferroptosis inhibition by a small molecule targeting PHB2” (Nature Communications, 2022)

Legend:
Assay in all cases: biochemical
Design in all cases: Eurofins recombinant human kinase profiling, remaining kinase activity as % of control, 10 uM ATP
Settings in all cases: ATP 10 uM; read-out: %Ctrl@10 μM
[1] = molecular target: T1, ASK1(h) (Homo sapiens, UniProt Q99683)
T1 construct: gene MAP3K5
Procedure, shortened: (§1)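 Recombinant human kinases, 401 in total, screened using an outsourced kinase profiling assay.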

[2] = molecular target: T2, Abl(Y253F)(h) (Homo sapiens, UniProt P00519, Y253F)
T2 construct: gene ABL1
Procedure, shortened: as §1

[3] = molecular target: Axl(h) (Homo sapiens, UniProt P30530)
Axl(h), sequence (P30530 whole entry): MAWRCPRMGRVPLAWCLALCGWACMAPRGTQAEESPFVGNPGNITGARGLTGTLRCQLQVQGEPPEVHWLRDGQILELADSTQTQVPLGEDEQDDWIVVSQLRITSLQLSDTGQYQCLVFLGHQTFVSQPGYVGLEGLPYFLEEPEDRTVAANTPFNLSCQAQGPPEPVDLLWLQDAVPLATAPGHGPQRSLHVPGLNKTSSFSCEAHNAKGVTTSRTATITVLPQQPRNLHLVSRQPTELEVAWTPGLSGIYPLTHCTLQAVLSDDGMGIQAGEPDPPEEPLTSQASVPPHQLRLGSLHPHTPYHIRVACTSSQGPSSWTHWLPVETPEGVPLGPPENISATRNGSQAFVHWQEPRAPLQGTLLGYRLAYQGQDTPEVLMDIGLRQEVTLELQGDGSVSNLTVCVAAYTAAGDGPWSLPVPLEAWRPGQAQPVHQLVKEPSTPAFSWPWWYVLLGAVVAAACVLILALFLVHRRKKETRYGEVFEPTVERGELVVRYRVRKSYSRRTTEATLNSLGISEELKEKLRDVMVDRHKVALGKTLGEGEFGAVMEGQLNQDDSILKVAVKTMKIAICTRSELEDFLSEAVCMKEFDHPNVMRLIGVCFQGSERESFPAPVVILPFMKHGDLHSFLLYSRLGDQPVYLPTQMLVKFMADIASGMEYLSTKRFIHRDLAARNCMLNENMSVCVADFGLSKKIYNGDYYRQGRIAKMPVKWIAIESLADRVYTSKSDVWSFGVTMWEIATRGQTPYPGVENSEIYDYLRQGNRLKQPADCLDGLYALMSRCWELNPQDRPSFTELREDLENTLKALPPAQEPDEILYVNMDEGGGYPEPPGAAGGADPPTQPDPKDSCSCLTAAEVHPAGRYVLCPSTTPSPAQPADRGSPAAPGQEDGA
Procedure, shortened: as §1

[4] = molecular target: T3, B-Raf(h) (Homo sapiens, UniProt P15056)
T3 construct: gene BRAF
T3 sequence (P15056 whole entry): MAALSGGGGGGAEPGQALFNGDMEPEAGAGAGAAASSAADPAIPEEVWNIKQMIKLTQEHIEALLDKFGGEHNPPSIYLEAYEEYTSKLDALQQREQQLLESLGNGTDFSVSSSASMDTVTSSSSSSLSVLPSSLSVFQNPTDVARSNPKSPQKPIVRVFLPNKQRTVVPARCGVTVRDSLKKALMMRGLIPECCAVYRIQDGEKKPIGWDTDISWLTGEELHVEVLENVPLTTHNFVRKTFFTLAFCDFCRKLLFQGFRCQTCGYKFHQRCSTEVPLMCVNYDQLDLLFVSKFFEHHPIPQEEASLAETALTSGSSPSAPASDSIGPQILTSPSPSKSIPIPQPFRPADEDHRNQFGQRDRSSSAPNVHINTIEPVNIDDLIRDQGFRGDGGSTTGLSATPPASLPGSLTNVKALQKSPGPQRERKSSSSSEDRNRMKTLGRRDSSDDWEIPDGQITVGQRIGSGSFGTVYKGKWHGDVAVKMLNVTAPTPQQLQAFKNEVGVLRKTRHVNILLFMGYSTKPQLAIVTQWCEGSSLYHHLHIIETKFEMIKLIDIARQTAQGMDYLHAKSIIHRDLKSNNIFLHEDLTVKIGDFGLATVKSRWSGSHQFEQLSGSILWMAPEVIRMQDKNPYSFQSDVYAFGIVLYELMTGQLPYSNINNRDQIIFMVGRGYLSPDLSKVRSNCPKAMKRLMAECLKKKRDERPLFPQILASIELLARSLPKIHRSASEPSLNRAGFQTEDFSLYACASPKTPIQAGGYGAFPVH
Procedure, shortened: as §1

[5] = molecular target: Blk(h) (Homo sapiens, UniProt P51451)
Procedure, shortened: as §1

[6] = molecular target: BrSK1(h) (Homo sapiens, UniProt Q8TDC3)
Procedure, shortened: as §1

[7] = molecular target: Cdc7/cyclinB1(h) (Homo sapiens, UniProt O00311)
Procedure, shortened: as §1

[8] = molecular target: T4, DRAK2(h) (Homo sapiens, UniProt O94768)
T4 construct: gene STK17B
T4 sequence (O94768 whole entry): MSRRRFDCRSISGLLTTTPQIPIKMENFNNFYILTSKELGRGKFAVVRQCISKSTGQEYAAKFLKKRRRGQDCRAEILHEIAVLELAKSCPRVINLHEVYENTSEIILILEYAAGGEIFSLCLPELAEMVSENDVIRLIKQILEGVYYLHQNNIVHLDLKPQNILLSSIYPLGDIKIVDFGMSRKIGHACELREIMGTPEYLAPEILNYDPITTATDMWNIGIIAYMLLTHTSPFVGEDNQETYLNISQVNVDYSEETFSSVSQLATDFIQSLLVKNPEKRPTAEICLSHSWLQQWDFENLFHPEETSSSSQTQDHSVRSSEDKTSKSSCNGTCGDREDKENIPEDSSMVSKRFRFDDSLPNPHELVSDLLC
Procedure, shortened: as §1

[9] = molecular target: T5, Fms(h) (Homo sapiens, UniProt P07333)
T5 construct: gene CSF1R
T5 sequence (P07333 whole entry): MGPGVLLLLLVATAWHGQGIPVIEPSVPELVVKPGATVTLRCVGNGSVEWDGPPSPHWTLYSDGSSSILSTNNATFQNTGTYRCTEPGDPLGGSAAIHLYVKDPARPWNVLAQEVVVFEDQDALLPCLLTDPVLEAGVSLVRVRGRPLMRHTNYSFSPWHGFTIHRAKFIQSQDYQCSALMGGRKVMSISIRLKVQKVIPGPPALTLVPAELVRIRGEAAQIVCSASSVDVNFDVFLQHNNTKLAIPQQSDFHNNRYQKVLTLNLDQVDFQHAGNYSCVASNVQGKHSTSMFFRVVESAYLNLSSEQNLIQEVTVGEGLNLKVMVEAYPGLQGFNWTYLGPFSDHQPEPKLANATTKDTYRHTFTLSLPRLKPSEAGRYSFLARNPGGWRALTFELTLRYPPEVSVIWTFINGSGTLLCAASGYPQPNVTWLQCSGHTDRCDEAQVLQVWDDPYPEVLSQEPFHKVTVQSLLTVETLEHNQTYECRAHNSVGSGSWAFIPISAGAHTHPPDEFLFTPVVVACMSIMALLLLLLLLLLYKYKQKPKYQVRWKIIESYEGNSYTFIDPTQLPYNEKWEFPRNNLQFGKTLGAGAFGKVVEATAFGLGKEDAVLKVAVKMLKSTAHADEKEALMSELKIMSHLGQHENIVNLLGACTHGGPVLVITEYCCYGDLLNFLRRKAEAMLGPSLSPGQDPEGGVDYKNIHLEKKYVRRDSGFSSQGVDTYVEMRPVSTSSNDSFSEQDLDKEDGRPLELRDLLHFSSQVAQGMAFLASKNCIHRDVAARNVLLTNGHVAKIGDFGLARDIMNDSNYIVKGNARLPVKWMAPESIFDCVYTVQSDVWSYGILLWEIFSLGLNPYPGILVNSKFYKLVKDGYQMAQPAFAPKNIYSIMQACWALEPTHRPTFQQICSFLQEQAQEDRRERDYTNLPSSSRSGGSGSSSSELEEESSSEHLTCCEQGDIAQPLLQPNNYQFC
Procedure, shortened: as §1

[10] = molecular target: IRAK1(h) (Homo sapiens, UniProt P51617)
Procedure, shortened: as §1

[11] = molecular target: T6, JNK2α2(h) (Homo sapiens, UniProt P45984)
T6 construct: gene MAPK9; isoform alpha2
Procedure, shortened: as §1

[12] = molecular target: LIMK2(h) (Homo sapiens, UniProt P53671)
LIMK2(h), sequence (P53671 whole entry): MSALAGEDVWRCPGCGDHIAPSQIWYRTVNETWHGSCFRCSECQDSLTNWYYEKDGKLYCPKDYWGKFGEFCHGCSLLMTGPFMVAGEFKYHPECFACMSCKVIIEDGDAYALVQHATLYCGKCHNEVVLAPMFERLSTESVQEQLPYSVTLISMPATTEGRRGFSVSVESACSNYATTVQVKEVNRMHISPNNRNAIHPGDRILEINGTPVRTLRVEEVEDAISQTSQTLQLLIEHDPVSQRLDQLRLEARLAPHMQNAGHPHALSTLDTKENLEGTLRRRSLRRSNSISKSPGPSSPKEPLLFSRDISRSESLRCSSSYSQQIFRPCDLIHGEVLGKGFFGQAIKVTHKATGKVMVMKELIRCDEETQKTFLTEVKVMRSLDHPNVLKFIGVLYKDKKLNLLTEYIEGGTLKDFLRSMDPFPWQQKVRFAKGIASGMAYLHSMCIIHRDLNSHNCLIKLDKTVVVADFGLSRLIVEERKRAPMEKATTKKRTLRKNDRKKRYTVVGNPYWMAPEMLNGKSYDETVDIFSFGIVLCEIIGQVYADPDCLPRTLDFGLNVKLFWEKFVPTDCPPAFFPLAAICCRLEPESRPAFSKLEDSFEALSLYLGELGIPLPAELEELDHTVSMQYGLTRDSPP
Procedure, shortened: as §1

[13] = molecular target: LTK(h) (Homo sapiens, UniProt P29376)
Procedure, shortened: as §1

[14] = molecular target: T7, MLCK(h) (Homo sapiens, UniProt Q15746)
T7 construct: gene MYLK
Procedure, shortened: as §1

[15] = molecular target: T8, PKBγ(h) (Homo sapiens, UniProt Q9Y243)
T8 construct: gene AKT3
Procedure, shortened: as §1

[16] = molecular target: T9, PKCβI(h) (Homo sapiens, UniProt P05771)
T9 construct: gene PRKCB; isoform beta I
T9 sequence (P05771 whole entry, canonical isoform): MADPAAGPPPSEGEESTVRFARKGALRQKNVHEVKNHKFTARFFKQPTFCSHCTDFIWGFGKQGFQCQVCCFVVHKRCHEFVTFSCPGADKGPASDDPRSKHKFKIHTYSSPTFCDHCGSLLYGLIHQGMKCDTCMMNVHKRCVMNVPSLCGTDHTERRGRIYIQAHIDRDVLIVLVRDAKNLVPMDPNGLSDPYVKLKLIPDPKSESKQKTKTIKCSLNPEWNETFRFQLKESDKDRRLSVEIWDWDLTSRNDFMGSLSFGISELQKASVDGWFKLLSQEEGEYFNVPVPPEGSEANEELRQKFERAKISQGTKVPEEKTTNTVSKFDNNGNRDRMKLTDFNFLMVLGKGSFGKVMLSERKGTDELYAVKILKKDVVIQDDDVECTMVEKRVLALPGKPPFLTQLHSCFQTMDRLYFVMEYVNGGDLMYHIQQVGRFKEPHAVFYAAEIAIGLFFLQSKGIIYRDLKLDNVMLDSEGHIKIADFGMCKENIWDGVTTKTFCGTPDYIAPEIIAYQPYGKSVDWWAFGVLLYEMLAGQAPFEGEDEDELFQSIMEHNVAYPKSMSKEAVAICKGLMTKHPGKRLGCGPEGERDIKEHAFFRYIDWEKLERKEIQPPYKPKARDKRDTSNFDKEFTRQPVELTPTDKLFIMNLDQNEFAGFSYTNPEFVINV
Procedure, shortened: as §1

[17] = molecular target: T10, PKR(h) (Homo sapiens, UniProt P19525)
T10 construct: gene EIF2AK2
Procedure, shortened: as §1

[18] = molecular target: T11, SAPK4(h) (Homo sapiens, UniProt O15264)
T11 construct: gene MAPK13
T11 sequence (O15264 whole entry): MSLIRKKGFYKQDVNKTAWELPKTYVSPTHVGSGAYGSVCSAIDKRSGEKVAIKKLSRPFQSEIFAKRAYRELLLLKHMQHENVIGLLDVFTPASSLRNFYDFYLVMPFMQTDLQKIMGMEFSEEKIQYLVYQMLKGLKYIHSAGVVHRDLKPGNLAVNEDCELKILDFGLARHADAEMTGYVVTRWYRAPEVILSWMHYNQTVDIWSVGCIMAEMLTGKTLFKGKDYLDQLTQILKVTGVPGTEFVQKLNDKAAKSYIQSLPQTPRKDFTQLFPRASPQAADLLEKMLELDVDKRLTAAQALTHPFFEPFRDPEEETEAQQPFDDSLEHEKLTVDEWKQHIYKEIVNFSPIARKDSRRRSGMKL
Procedure, shortened: as §1

[19] = molecular target: TAF1L(h) (Homo sapiens, UniProt Q8IZX4)
Procedure, shortened: as §1

[20] = molecular target: TSSK4(h) (Homo sapiens, UniProt Q6SA08)
TSSK4(h), sequence (Q6SA08 whole entry): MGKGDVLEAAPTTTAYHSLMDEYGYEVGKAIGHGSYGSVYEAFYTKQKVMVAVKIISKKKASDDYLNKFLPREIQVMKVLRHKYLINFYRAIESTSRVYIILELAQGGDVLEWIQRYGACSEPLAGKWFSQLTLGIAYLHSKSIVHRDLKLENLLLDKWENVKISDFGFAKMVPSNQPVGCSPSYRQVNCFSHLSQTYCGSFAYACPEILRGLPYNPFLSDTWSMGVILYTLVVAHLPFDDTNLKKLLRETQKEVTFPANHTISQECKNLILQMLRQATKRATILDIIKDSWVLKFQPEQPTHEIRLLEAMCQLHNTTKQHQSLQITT
Procedure, shortened: as §1

[21] = molecular target: VRK2(h) (Homo sapiens, UniProt Q86Y07)
Procedure, shortened: as §1

[22] = molecular target: T12, Yes(h) (Homo sapiens, UniProt P07947)
T12 construct: gene YES1
Procedure, shortened: as §1

[23] = molecular target: mTOR(h) (Homo sapiens, UniProt P42345)
Procedure, shortened: as §1

Structure (SMILES): C1=C(c2nc(-c3cnn(C4CCNCC4)c3)cn3cc(-c4ccccc4)nc23)CCOC1 [YL-939]
- remaining activity at 10 µM [1]: 110%
- remaining activity at 10 µM [2]: 123%
- remaining activity at 10 µM [3]: 84%
- remaining activity at 10 µM [4]: 84%
- remaining activity at 10 µM [5]: 100%
- remaining activity at 10 µM [6]: 91%
- remaining activity at 10 µM [7]: 104%
- remaining activity at 10 µM [8]: 128%
- remaining activity at 10 µM [9]: 122%
- remaining activity at 10 µM [10]: 118%
- remaining activity at 10 µM [11]: 72%
- remaining activity at 10 µM [12]: 85%
- remaining activity at 10 µM [13]: 108%
- remaining activity at 10 µM [14]: 60%
- remaining activity at 10 µM [15]: 97%
- remaining activity at 10 µM [16]: 98%
- remaining activity at 10 µM [17]: 97%
- remaining activity at 10 µM [18]: 100%
- remaining activity at 10 µM [19]: 84%
- remaining activity at 10 µM [20]: 97%
- remaining activity at 10 µM [21]: 92%
- remaining activity at 10 µM [22]: 90%
- remaining activity at 10 µM [23]: 91%
